# Laboratory results published in patent US6413980B1, “Nitrogen containing heterobicycles as factor Xa inhibitors” (Bristol-Myers Squibb Pharma Company, priority 1998, dated 2002).
# Where a name gives a salt, the structure may show the parent alone.
compound,measurement,value
"Cc1nn(-c2cccc(CN)c2)c2c1CCN(c1ccc(-c3ccccc3CN3CC[C@H](O)C3)cc1)C2 (as salt: trifluoroacetic acid salt) [Example 100, 1-[3-Aminomethylphenyl]-3-methyl-6-[(2′-N-((3-(S)-hydroxy)pyrrolidinyl)methyl-[1,1′]-biphen-4-yl)]-1,4,5,6-tetrahydro-7H-pyrazolo-[3,4-c]-pyridin-7-one bis-trifluoroacetic acid salt]",melting point,79.2 °C
